Experimental findings from patent US10383867B2, “Quinoline derivatives and their use for treating endoplasmic reticulum stress-related diseases and disorders” (priority 2015, dated 2019) are described below.

Structures are written as SMILES.

The subject of the first test is HEK293 cells / N2a cells under ER stress. In words: ER stress cell rescue assay (protection against thapsigargin- or hydrogen peroxide-induced cell-death). Type of test: cell-based, human (HEK293), mouse (N2a). The conditions noted are these: cell rescue from induced ER stress; cell line of the EC50 not specified. On the procedure: Protection against Thapsigargin (TG)-induced Cell-death. Human embryonic kidney (HEK293) cells were grown in Dulbecco's Modified Eagle's Medium (DMEM) with 10% FBS and 1% antibiotic antimycotic solution (ABAM). Mouse neuroblastoma (N2a) cells were grown in 1:1 DMIEM:OPTI-MEM® with 5% FBS and 1% ABAM. All cells were grown in 10% CO2 in a humidified environment of the incubator. Cells grown in 96-well plates were exposed to a test compound (20 μM) for 2 hrs before addition of thapsigargin (15 μM for HEK293 cells and 1 μM for N2a cells) to induce ER stress. After incubation in cell-culture incubator for 24 hrs, ALAMARBLUE® regent (10% v/v) was added to the wells. Fluorescence reading was taken 2 hrs after the addition of the ALAMARBLUE® regent. Cell-viability was calculated as a percentage of relative fluorescence unit (RFU) compared to control.
Protection against Hydrogen Peroxide-induced Cell-death. N2a cell grown in 96-well plates were exposed to a test compound (40 μM) for 2 hrs before addition of hydrogen peroxide (200 μM). After 40 min of incubation with hydrogen peroxide, ALAMARBLUE® regent (10% v/v) was added to the wells. Fluorescence reading was taken 2 hrs after the addition of the ALAMARBLUE® regent. Cell-viability was calculated as a percentage of relative fluorescence unit (RFU) compared to control.
The results are summarized in Table 1, where, for ER stress cell rescue ECso values, A represents a value smaller than 20 μM, B represents a value between 20 μM to 100 μM, C represents a value greater than 100 μM.
As for `Cc1ccc2cccc(/C=C/c3ccc(OC(C)C)cc3)c2n1` [A1, (E)-8-(Isopropoxystyryl)-2-methylquinoline], the EC50 is under 20 µM.

The molecule `Cc1ccc2cccc(-c3nc(-c4ccc(OC(C)C)cc4)no3)c2n1` [B1, 3-(4-Isopropoxyphenyl)-5-(2-methylquinolin-8-yl)-1,2,4-oxadiazole] showed an EC50 of under 20 µM.

`Cc1ccc2cccc(-c3nc(-c4ccc(Br)s4)no3)c2n1` [B2, 3-(5-Bromothiophen-2-yl)-5-(2-methylquinolin-8-yl)-1,2,4-oxadiazole] showed an EC50 of under 20 µM.

Turning to `Cc1ccc2cccc(NCc3ccc(OC(C)C)cc3)c2n1` [C1, N-((4-Isopropoxyphenyl)methyl)-2-methylquinolin-8-amine], the EC50 is under 20 µM.

Consider `Cc1ccc2cccc(NCc3cc(Br)cs3)c2n1` [C2, N-((4-Bromothiophen-2-yl)methyl)-2-methylquinolin-8-amine], for which the EC50 is under 20 µM.

The molecule `Cc1ccc2cccc(NCc3ccc(Br)s3)c2n1` [C3, N-((5-Bromothiophen-2-yl)methyl)-2-methylquinolin-8-amine] displayed an EC50 of under 20 µM.

On to `Cc1ccc2cccc(NS(=O)(=O)c3ccc(OC(C)C)cc3)c2n1` [D1, N-(2-Methylquinolin-8-yl)-5-isopropoxyphenyl-2-sulfonamide], for which the EC50 was under 20 µM.

`Cc1ccc2cccc(NS(=O)(=O)c3cc(Br)cs3)c2n1` [D2, 4-Bromo-N-(2-methylquinolin-8-yl)thiophene-2-sulfonamide] registered an EC50 of under 20 µM.

In the case of `Cc1ccc2cccc(NS(=O)(=O)c3ccc(Br)s3)c2n1` [D3, 5-Bromo-N-(2-methylquinolin-8-yl)thiophene-2-sulfonamide], the EC50 is under 20 µM.

The next test deals with SERCA. Briefly: Activation of SERCA (NADH-linked, enzyme-coupled ATPase assay). Type of test: biochemical. The following applies: SERCA ATPase, compound at 10 μM. The protocol: Test compounds were characterized over a range of concentrations using an NADH-linked, enzyme-coupled ATPase assay. Each well contained […] of SR vesicles (optimized for skeletal or cardiac SR, respectively), 50 mM MOPS (pH 7.0), 100 mM KCl, 5 mM MgCl2, 1 mM EGTA, 0.2 mM NADH, 1 mM phosphoenol pyruvate, 5 IU pyruvate kinase, 5 IU lactate dehydrogenase, and […] A23187 (a calcium ionophore), and CaCl2 was added to set free [Ca^2+] to the specific values. The assay was started upon addition of ATP at a final concentration of 5 mM, and read in a SpectraMax Plus microplate spectrophotometer and the ATPase activities were fitted using the Hill function. ECso values were determined as the concentrations of the test compounds that were required for 50% activation of the maximum Vmax.
The biological results are summarized in Table 1, wherein, for SERCA ATPase EC50 values, A represents a value smaller than 20 μM, B represents a value between 20 μM to 100 μM, C represents a value greater than 100 μM; and for increases in Vmax at 10 μM, A′ represents an increase greater than 50%, B′ represents an increase between 20 to 50%, and C′ represents an increase no greater than 20%.
Turning to `Cc1ccc2cccc(-c3nc(-c4ccc(OC(C)C)cc4)no3)c2n1` [B1, 3-(4-Isopropoxyphenyl)-5-(2-methylquinolin-8-yl)-1,2,4-oxadiazole], the “Increase in Vmax at 10 μM” value was “B′ (B′ represents an increase between 20 to 50%)”.

Regarding `Cc1ccc2cccc(-c3nc(-c4ccc(Br)s4)no3)c2n1` [B2, 3-(5-Bromothiophen-2-yl)-5-(2-methylquinolin-8-yl)-1,2,4-oxadiazole], the “Increase in Vmax at 10 μM” value is recorded as “B′ (B′ represents an increase between 20 to 50%)”.

As for `Cc1ccc2cccc(NCc3ccc(OC(C)C)cc3)c2n1` [C1, N-((4-Isopropoxyphenyl)methyl)-2-methylquinolin-8-amine], the “Increase in Vmax at 10 μM” value was “B′ (B′ represents an increase between 20 to 50%)”.

`Cc1ccc2cccc(NCc3cc(Br)cs3)c2n1` [C2, N-((4-Bromothiophen-2-yl)methyl)-2-methylquinolin-8-amine]: the “Increase in Vmax at 10 μM” value was “B′ (B′ represents an increase between 20 to 50%)”.

Consider `Cc1ccc2cccc(NCc3ccc(Br)s3)c2n1` [C3, N-((5-Bromothiophen-2-yl)methyl)-2-methylquinolin-8-amine], for which the “Increase in Vmax at 10 μM” value was “B′ (B′ represents an increase between 20 to 50%)”.

Turning to `Cc1ccc2cccc(NS(=O)(=O)c3ccc(OC(C)C)cc3)c2n1` [D1, N-(2-Methylquinolin-8-yl)-5-isopropoxyphenyl-2-sulfonamide], the “Increase in Vmax at 10 μM” value was “C′ (C′ represents an increase no greater than 20%)”.

With `Cc1ccc2cccc(NS(=O)(=O)c3cc(Br)cs3)c2n1` [D2, 4-Bromo-N-(2-methylquinolin-8-yl)thiophene-2-sulfonamide], the “Increase in Vmax at 10 μM” value is given as “B′ (B′ represents an increase between 20 to 50%)”.

As for `Cc1ccc2cccc(NS(=O)(=O)c3ccc(Br)s3)c2n1` [D3, 5-Bromo-N-(2-methylquinolin-8-yl)thiophene-2-sulfonamide], the “Increase in Vmax at 10 μM” value was “B′ (B′ represents an increase between 20 to 50%)”.

Still in this test, the particulars now being: SR vesicles; concentration for 50% activation of the maximum Vmax.
`Cc1ccc2cccc(-c3nc(-c4ccc(OC(C)C)cc4)no3)c2n1` [B1, 3-(4-Isopropoxyphenyl)-5-(2-methylquinolin-8-yl)-1,2,4-oxadiazole] showed an EC50 of under 20 µM.

For the molecule `Cc1ccc2cccc(-c3nc(-c4ccc(Br)s4)no3)c2n1` [B2, 3-(5-Bromothiophen-2-yl)-5-(2-methylquinolin-8-yl)-1,2,4-oxadiazole], the EC50 is under 20 µM.

Consider `Cc1ccc2cccc(NCc3ccc(OC(C)C)cc3)c2n1` [C1, N-((4-Isopropoxyphenyl)methyl)-2-methylquinolin-8-amine], for which the EC50 is under 20 µM.

`Cc1ccc2cccc(NCc3cc(Br)cs3)c2n1` [C2, N-((4-Bromothiophen-2-yl)methyl)-2-methylquinolin-8-amine]: the EC50 was under 20 µM.

Molecule `Cc1ccc2cccc(NCc3ccc(Br)s3)c2n1` [C3, N-((5-Bromothiophen-2-yl)methyl)-2-methylquinolin-8-amine] returned an EC50 of under 20 µM.

`Cc1ccc2cccc(NS(=O)(=O)c3ccc(OC(C)C)cc3)c2n1` [D1, N-(2-Methylquinolin-8-yl)-5-isopropoxyphenyl-2-sulfonamide] gave an EC50 of under 20 µM.

For `Cc1ccc2cccc(NS(=O)(=O)c3cc(Br)cs3)c2n1` [D2, 4-Bromo-N-(2-methylquinolin-8-yl)thiophene-2-sulfonamide], the EC50 was under 20 µM.

`Cc1ccc2cccc(NS(=O)(=O)c3ccc(Br)s3)c2n1` [D3, 5-Bromo-N-(2-methylquinolin-8-yl)thiophene-2-sulfonamide] displayed an EC50 of under 20 µM.
